The source made the active and inactive calls. The rule behind the calls is not given here.
How the values were obtained:
[1] = Acute toxicity in ICR mouse assessed as change in creatine kinase level at 100 mg/kg, ip measured after 6 days; format: organism-based; details: in vivo, 144 h, time 6 day
Bel-7402 [2] = test: Cell cycle arrest in human Bel-7402 cells assessed as accumulation at S phase at 2 uM measured after 24 hrs by propidium iodide staining based flow cytometry (reference value: 31%); format: functional
HepG2 [3] = test: Induction of apoptosis in human HepG2 cells assessed as chromatin shrinkage at 0.2 to 0.8 uM measured after 48 hrs by Hoechst 33342 staining based fluorescence microscopy; format: functional, cell-based; details: dose 0.2-0.8 µM
HepG2 [4] = test: Antitumor activity against human HepG2 cells xenografted in BALB/c nude mouse assessed as reduction in tumor weight at 5 to 10 mg/kg, ip administered once daily for 16 days measured post-last dose; format: functional, organism-based; details: dose 5-10 mg/kg, time 16.0 day
HepG2 [5] = test: Inhibition of colony formation in human HepG2 cells at 0.4 to 0.8 uM treated every 3 days for 14 days by crystal violet staining based assay; format: functional, cell-based; details: dose 0.4-0.8 µM, time 14.0 day
[6] = Acute toxicity in ICR mouse assessed as change in creatinine level at 100 mg/kg, ip measured after 6 days; format: organism-based; details: in vivo, 144 h, time 6 day
HepG2 [7] = test: Antitumor activity against human HepG2 cells xenografted in BALB/c nude mouse assessed as tumor growth inhibition at 5 mg/kg, ip administered once daily for 16 days relative to control; format: functional; details: HepG2, 384 h, time 16 day, read-out: TGI
HepG2 [8] = test: Induction of apoptosis in human HepG2 cells assessed as late apoptotic cells at 0.8 uM measured after 48 hrs by Annexin V-FITC/propidium iodide staining based flow cytometry (reference value: 1.66%); format: functional
[9] = Terminal half life in ICR mouse at 10 mg/kg, iv; format: ADME, organism-based; details: in vivo, read-out: beta t1/2 (converted)
HepG2 [10] = test: Induction of apoptosis in human HepG2 cells assessed as viable cells at 0.4 uM measured after 48 hrs by Annexin V-FITC/propidium iodide staining based flow cytometry (reference value: 94.5%); format: functional; details: read-out: Activity
[11] = Acute toxicity in ICR mouse assessed as change in urea level at 100 mg/kg, ip measured after 6 days; format: organism-based; details: in vivo, 144 h, time 6 day
[12] = Acute toxicity in ICR mouse assessed as body weight loss at 100 mg/kg, ip measured for 6 days; format: organism-based; details: in vivo, 144 h, time 6 day
HepG2 [13] = test: Induction of ROS generation in human HepG2 cells measured after 48 hrs by DCFH-DA probe based fluorescence microscopy; format: functional, cell-based; details: dose 0.2-0.8 µM, DDE = dose-dependent effect
[14] = AUC (0 to t) in ICR mouse at 10 mg/kg, iv; format: ADME, organism-based; design: dose 10 mg/kg, route iv; details: in vivo
HepG2 [15] = test: Antitumor activity against human HepG2 cells xenografted in BALB/c nude mouse assessed as increase in cleaved caspase-3 expression at 5 to 10 mg/kg, ip administered once daily for 16 days measured post-last dose by immunohistochemical analysis; format: functional, organism-based; details: dose 5-10 mg/kg, time 16.0 day
[16] = Toxicity in human HepG2 cells xenografted BALB/c nude mouse assessed as change in body weight at 5 to 10 mg/kg, ip administered once daily for 16 days measured 3 times per week during compound dosing; format: organism-based; details: in vivo, 384 h, dose 5-10 mg/kg, time 16 day
Bel-7402 [17] = test: Antiproliferative activity against human Bel-7402 cells measured after 72 hrs by MTT assay; format: functional, cell-based; details: Bel-7402, 72 h
Bel-7402 [18] = test: Inhibition of colony formation in human Bel-7402 cells assessed as reduction in colony size at 0.5 to 2 uM treated every 3 days for 14 days by crystal violet staining based microscopy; format: functional, cell-based; details: dose 0.5-2 µM, time 14.0 day
HepG2 [19] = test: Cell cycle arrest in human HepG2 cells assessed as accumulation at G2/M phase at 0.8 uM measured after 24 hrs by propidium iodide staining based flow cytometry (reference value: 19.93%); format: functional
HepG2 [20] = test: Cell cycle arrest in human HepG2 cells assessed as accumulation at S phase at 0.4 uM measured after 24 hrs by propidium iodide staining based flow cytometry (reference value: 32.81%); format: functional
HepG2 [21] = test: Induction of apoptosis in human HepG2 cells assessed as viable cells at 0.2 uM measured after 48 hrs by Annexin V-FITC/propidium iodide staining based flow cytometry (reference value: 94.5%); format: functional; details: read-out: Activity
HepG2 [22] = test: Induction of apoptosis in human HepG2 cells assessed as necrotic cells at 0.4 uM measured after 48 hrs by Annexin V-FITC/propidium iodide staining based flow cytometry (reference value: 2.04%); format: functional
Bel-7402 [23] = test: Cell cycle arrest in human Bel-7402 cells assessed as accumulation at G1 phase at 2 uM measured after 24 hrs by propidium iodide staining based flow cytometry (reference value: 38.72%); format: functional
[24] = Acute toxicity in ICR mouse assessed as change in ALT level at 100 mg/kg, ip measured after 6 days; format: organism-based; details: in vivo, 144 h, time 6 day
[25] = Acute toxicity in ICR mouse assessed as change in uric acid level at 100 mg/kg, ip measured after 6 days; format: organism-based; details: in vivo, 144 h, time 6 day
HeLa = test: Antiproliferative activity against human HeLa cells measured after 72 hrs by MTT assay; format: functional, cell-based
[26] = Acute toxicity in ICR mouse assessed as pathological change in lung at 100 mg/kg, ip measured after 6 days; format: organism-based; details: in vivo, 144 h, time 6 day
Bel-7402 [27] = test: Cell cycle arrest in human Bel-7402 cells assessed as accumulation at G2/M phase at 2 uM measured after 24 hrs by propidium iodide staining based flow cytometry (reference value: 30.29%); format: functional
[28] = biological target: ADP-ribosylation factor 1 (Homo sapiens) (UniProt P84077); test: Binding affinity to Arf1 in human HepG2 cell lysate assessed as change in denaturation temperature at 25 uM measured after 3 mins by CETSA; format: subcellular
Chain of ADP-ribosylation factor 1 (Homo sapiens) (P84077 whole entry): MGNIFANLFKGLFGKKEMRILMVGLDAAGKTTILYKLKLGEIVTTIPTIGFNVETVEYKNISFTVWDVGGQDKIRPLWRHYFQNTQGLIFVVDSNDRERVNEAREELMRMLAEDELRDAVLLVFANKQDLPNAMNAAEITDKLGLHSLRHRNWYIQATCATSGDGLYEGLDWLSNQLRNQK

HepG2 [29] = test: Cell cycle arrest in human HepG2 cells assessed as accumulation at S phase at 0.2 uM measured after 24 hrs by propidium iodide staining based flow cytometry (reference value: 32.81%); format: functional
[30] = Acute toxicity in ICR mouse assessed as change in blood urea nitrogen level at 100 mg/kg, ip measured after 6 days; format: organism-based; details: in vivo, 144 h, time 6 day
HepG2 [31] = test: Antiproliferative activity against human HepG2 cells measured after 72 hrs by MTT assay; format: functional, cell-based; details: HepG2, 72 h
[32] = Selectivity index, ratio of IC50 for human L02 cells to IC50 for human HepG2 cells; format: toxicity; details: L02 cells and HepG2 cells, read-out: Ratio IC50
HepG2 [33] = test: Cell cycle arrest in human HepG2 cells assessed as accumulation at G1 phase at 0.4 uM measured after 24 hrs by propidium iodide staining based flow cytometry (reference value: 42.27%); format: functional
[34] = Acute toxicity in ICR mouse assessed as change in ALP level at 100 mg/kg, ip measured after 6 days; format: organism-based; details: in vivo, 144 h, time 6 day
HepG2 [35] = test: Induction of apoptosis in human HepG2 cells assessed as increase in cleaved PARP expression at 0.2 to 0.8 uM measured after 48 hrs by Western blot analysis; format: functional, cell-based; details: dose 0.2-0.8 µM
[36] = MRT (0 to t) in ICR mouse at 10 mg/kg, iv; format: ADME, organism-based; details: in vivo
HepG2 [37] = test: Induction of apoptosis in human HepG2 cells assessed as late apoptotic cells at 0.4 uM measured after 48 hrs by Annexin V-FITC/propidium iodide staining based flow cytometry (reference value: 1.66%); format: functional

C[C@H]1CCC/C=C/[C@@H]2C[C@H](O)C[C@H]2[C@H](OC(=O)/C=C/c2ccc(N(C)C)cc2)/C=C/C(=O)O1
Activity [1]: Non-Toxic
Activity (Bel-7402 [2]): 20.69%
Activity (HepG2 [3]): Active
Activity (HepG2 [4]): Active
inhibition (HepG2 [5]): Active
Activity [6]: Non-Toxic
inhibition in vivo at 5 mg/kg (HepG2 [7]): 34.3%
Activity (HepG2 [8]): 4.24%
half-life [9]: 125 min
viability at 0.4 µM (HepG2 [10]): 53.1%
Activity [11]: Non-Toxic
Activity [12]: Toxic
Activity (HepG2 [13]): Dde
AUC(0-t) [14]: 4010 ng·h/mL
Activity (HepG2 [15]): Active
Activity [16]: Non-Toxic
IC50 (Bel-7402 [17]): 840 nM
inhibition (Bel-7402 [18]): Active
Activity (HepG2 [19]): 15.85%
Activity (HepG2 [20]): 21.37%
viability at 0.2 µM (HepG2 [21]): 66.1%
Activity (HepG2 [22]): 41.57%
Activity (Bel-7402 [23]): 60.5%
Activity [24]: Non-Toxic
Activity [25]: Non-Toxic
IC50 (HeLa): 860 nM
Activity [26]: Non-Toxic
Activity (Bel-7402 [27]): 18.82%
Activity [28]: Active
Activity (HepG2 [29]): 29.24%
Activity [30]: Non-Toxic
IC50 (HepG2 [31]): 290 nM
selectivity ratio [32]: 9.69
Activity (HepG2 [33]): 57.76%
Activity [34]: Non-Toxic
Activity (HepG2 [35]): Active
MRT last [36]: 19.2 min
Activity (HepG2 [37]): 3.9%
